Measurements: article PMC7316994, “In Vitro Pharmacological Profile of a New Small Molecule Bradykinin B2 Receptor Antagonist” (Frontiers in Pharmacology, 2020)
Read-outs that look alike come from different tables or passages of the source.

Tests used:
[1] = target: T1, kinin B1 receptor (Homo sapiens, UniProt P46663); test: umbilical vein, Sar-[D-Phe^8]des-Arg^9-BK-induced contraction; details: 1 μM
T1 construct: during the 3-hour incubation period to upregulate the expression of B1; from tissue; host or cells: human umbilical vein rings pre-incubated with interleukin-1β and tumor necrosis factor-α

[2] = target: Neurotensin NT1 (Homo sapiens, UniProt P30989); test: radioligand binding (Table S2); details: [125I] Neurotensin, Human recombinant HEK-293 cells
Chain of Neurotensin NT1 (P30989 whole entry): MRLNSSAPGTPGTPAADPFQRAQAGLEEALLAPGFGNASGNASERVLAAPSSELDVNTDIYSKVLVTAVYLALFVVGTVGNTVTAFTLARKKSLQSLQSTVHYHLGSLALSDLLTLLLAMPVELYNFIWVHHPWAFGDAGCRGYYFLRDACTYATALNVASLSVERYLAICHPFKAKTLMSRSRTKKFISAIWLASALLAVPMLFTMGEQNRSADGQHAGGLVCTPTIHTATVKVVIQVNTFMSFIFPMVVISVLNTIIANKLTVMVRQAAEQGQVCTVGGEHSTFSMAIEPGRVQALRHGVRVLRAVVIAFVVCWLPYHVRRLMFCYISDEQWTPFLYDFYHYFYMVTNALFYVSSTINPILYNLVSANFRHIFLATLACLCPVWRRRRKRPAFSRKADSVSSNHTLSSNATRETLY

[3] = target: T2, Bombesin BB1 (Homo sapiens, UniProt P28336); test: functional assay, intracellular [Ca2+], CHO cells (Table S2); type: cell-based
T2 construct: host or cells: CHO cells
T2 sequence (P28336 whole entry): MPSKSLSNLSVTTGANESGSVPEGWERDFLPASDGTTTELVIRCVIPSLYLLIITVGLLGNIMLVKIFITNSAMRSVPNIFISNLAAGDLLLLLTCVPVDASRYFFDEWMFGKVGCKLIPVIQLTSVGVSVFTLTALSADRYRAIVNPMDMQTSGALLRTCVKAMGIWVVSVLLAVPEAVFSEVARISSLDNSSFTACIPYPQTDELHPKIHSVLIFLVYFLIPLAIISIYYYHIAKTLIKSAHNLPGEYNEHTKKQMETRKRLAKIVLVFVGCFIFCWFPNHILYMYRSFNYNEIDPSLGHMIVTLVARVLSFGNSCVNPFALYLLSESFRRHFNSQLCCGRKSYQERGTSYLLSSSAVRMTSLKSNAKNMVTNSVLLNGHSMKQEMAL

[4] = target: T3, Acetylcholinesterase (Homo sapiens, UniProt P22303); test: enzyme assay (Table S2); type: biochemical; details: Acetylthiocholine (400 µM), Photometry
T3 construct: Eurofins (assay provider); host or cells: HEK-293 cells

[5] = test system: Thyroid hormone; test: radioligand binding (Table S2); details: [125I] Triiodothyronine, Rat liver
[6] = target: T4, COX1 (Homo sapiens, UniProt P23219); test: enzyme assay (Table S2); type: biochemical; details: Arachidonic acid (3 µM) + ADHP, Fluorimetry
T4 construct: Eurofins (assay provider)
T4 sequence (P23219 24-599): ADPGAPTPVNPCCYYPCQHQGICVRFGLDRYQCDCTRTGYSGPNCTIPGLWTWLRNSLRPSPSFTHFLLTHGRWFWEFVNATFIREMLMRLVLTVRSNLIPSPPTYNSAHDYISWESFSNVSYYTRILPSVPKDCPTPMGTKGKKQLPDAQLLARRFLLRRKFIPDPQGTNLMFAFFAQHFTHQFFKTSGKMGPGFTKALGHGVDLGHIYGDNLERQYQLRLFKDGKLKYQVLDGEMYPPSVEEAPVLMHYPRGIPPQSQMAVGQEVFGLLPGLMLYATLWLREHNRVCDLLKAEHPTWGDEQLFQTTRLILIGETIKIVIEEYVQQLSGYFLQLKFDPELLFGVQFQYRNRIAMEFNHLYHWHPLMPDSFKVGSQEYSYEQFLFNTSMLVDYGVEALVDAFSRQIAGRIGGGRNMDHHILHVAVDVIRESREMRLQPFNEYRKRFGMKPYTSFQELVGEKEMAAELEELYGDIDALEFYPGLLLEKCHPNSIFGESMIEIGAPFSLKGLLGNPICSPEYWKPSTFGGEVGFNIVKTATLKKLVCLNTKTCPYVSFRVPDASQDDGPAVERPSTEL

[7] = target: T5, Nicotinic N neuronal α4β2 (Homo sapiens, UniProt P17787+P43681); test: radioligand binding (Table S2); details: [3H] Cytisine, Human recombinant SH-SY5Y cells
T5 construct: host or cells: SH-SY5Y cells

[8] = test system: Glutamate ionotropic, AMPA; test: radioligand binding (Table S2); details: [3H] AMPA, Rat cerebral cortex
[9] = target: Somatostatin sst2 (Homo sapiens, UniProt P30874); test: radioligand binding (Table S2); details: [125I] Tyr11-Somatostatin 14, Human recombinant CHO-K1 cells
[10] = target: T6, B2 receptor (Homo sapiens, UniProt P30411); test: Ca^2+ mobilization assay, transfected CHO cells; type: cell-based; design: host or cells: CHO cells; details: inhibition of response to 0.03 nM BK
T6 sequence (P30411 1-391): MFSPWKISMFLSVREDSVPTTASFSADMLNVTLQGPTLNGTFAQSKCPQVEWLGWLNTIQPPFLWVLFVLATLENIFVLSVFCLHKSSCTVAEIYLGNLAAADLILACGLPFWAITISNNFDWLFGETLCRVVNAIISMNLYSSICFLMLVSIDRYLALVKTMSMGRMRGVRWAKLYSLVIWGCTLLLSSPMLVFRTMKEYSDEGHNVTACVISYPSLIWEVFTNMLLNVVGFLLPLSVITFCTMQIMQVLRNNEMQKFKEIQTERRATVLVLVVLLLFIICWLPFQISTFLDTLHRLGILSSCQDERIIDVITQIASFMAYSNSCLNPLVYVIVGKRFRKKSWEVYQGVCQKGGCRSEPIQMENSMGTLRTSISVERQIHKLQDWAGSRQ

[11] = target: T7, Opioid δ (DOP) (Homo sapiens, UniProt P41143); test: radioligand binding (Table S2); details: [3H] DADLE, Human recombinant CHO cells
T7 construct: host or cells: CHO cells

[12] = target: T8, Prostanoid EP2 (Homo sapiens, UniProt P43116); test: radioligand binding (Table S2); details: [3H] Prostaglandin E2, Human recombinant HEK-293 cells
T8 construct: host or cells: HEK-293 cells
T8 sequence (P43116 whole entry): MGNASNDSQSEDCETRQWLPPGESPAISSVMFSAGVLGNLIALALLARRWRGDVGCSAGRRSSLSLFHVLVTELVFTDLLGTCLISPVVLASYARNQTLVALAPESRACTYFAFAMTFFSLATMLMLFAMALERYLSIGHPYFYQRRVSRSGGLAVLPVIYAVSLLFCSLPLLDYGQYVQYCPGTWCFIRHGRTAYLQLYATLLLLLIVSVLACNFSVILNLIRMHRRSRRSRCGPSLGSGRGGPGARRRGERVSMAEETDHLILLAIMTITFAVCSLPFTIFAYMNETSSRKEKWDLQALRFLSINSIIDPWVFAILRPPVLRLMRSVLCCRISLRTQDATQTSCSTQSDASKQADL

[13] = target: T9, Vasopressin V1a (Homo sapiens, UniProt P37288); test: radioligand binding (Table S2); details: [3H] AVP, Human recombinant CHO cells
T9 construct: host or cells: CHO cells
T9 sequence (P37288 whole entry): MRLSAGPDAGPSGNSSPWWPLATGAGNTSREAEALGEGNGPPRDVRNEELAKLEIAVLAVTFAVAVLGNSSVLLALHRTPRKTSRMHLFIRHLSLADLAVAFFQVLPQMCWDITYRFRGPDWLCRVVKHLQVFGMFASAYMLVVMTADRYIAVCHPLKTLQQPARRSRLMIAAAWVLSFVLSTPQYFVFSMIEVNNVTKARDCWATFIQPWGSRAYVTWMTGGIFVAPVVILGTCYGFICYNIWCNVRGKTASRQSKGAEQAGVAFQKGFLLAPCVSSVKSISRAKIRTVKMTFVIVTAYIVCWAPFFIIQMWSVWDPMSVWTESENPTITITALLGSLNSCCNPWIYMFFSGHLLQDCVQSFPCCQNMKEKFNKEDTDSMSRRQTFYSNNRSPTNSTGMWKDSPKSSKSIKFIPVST

[14] = target: Adenosine A1 (Homo sapiens, UniProt P30542); test: functional assay, impedance, CHO cells (Table S2); type: cell-based; details: read-out: % inhibition of reference agonist response @ 10 µM (antagonist effect), CPA (1 nM)
Chain of Adenosine A1 (P30542 whole entry): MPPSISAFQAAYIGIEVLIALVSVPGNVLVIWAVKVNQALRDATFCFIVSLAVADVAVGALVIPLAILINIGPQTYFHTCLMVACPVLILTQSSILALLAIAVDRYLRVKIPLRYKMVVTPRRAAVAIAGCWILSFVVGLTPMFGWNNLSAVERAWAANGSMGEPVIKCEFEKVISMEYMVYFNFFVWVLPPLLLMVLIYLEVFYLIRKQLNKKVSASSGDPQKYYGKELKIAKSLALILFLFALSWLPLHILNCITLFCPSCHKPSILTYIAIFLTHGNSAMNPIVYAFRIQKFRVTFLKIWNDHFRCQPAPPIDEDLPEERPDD

[15] = target: T10, Vasopressin V2 (Homo sapiens, UniProt P30518); test: functional assay, cAMP HTRF, CHO cells (Table S2); type: cell-based; details: read-out: % inhibition of reference agonist response @ 10 µM (antagonist effect), AVP (0.03 nM)
T10 construct: expressed in transfected cells; host or cells: CHO cells
T10 sequence (P30518 whole entry): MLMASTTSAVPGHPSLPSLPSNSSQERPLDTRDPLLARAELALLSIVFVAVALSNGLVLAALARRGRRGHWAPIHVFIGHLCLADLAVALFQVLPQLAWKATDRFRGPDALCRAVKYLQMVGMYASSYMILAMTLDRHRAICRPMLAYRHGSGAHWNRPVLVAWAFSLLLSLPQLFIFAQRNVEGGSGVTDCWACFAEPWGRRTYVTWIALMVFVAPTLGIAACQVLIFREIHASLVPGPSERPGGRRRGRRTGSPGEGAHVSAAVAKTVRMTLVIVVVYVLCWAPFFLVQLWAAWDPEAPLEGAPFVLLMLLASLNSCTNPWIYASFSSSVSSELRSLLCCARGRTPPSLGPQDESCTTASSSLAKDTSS

[16] = target: T11, Adenosine A2A (Homo sapiens, UniProt P29274); test: radioligand binding (Table S2); details: [3H] CGS 21680, Human recombinant HEK-293 cells
T11 construct: host or cells: HEK-293 cells
T11 sequence (P29274 whole entry): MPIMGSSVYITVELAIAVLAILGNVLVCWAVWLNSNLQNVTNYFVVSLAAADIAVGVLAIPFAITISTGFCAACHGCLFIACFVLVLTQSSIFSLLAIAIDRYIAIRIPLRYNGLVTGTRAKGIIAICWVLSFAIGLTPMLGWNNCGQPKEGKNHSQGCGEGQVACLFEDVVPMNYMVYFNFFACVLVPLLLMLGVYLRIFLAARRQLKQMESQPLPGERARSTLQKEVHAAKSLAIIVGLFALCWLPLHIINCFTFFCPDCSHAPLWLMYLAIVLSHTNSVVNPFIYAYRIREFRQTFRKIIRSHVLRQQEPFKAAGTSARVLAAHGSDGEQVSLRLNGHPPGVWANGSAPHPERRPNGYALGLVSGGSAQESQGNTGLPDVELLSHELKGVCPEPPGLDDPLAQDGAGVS

[17] = target: T12, Endothelin ETB (Homo sapiens, UniProt P24530); test: radioligand binding (Table S2); details: [125I] Endothelin-1, Human recombinant CHO cells
T12 construct: host or cells: CHO cells
T12 sequence (P24530 27-442): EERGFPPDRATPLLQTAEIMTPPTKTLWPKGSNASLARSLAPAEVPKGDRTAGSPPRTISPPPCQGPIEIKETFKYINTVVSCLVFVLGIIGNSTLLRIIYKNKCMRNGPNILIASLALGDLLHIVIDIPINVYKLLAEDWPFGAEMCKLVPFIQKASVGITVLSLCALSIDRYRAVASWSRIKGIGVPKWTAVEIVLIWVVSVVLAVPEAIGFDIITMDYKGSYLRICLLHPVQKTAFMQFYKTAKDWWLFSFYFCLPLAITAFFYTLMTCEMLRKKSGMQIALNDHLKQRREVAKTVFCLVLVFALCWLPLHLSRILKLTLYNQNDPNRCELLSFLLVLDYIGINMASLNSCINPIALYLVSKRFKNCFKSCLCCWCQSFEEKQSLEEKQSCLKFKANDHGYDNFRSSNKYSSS

[18] = target: Adrenergic β2 (Homo sapiens, UniProt P07550); test: radioligand binding (Table S2); details: read-out: % Inhibition @ 10 µM
[19] = test system: Gamma-aminobutyric acid GABAA, muscimol, central; test: radioligand binding (Table S2); details: [3H] Muscimol, Wistar rat brain (minus cerebellum)
[20] = target: T13, Serotonin 5-HT2A (Homo sapiens, UniProt P28223); test: radioligand binding (Table S2); details: [125I] (±)DOI, Human recombinant HEK-293 cells
T13 construct: host or cells: HEK-293 cells
T13 sequence (P28223 whole entry): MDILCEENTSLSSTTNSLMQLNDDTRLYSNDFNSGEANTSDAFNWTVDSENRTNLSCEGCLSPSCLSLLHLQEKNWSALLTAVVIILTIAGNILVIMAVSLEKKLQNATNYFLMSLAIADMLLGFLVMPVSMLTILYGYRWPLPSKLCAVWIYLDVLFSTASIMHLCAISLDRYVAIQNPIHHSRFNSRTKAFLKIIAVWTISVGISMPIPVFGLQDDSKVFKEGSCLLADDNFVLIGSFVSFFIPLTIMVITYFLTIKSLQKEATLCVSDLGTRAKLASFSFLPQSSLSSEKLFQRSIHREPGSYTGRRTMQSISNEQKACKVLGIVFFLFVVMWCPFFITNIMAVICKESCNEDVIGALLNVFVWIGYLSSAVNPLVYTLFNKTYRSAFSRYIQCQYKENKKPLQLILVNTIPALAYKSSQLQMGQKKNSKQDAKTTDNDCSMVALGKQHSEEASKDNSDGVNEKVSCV

[21] = target: T14, Growth hormone secretagogue (GHS, ghrelin) (Homo sapiens, UniProt Q92847); test: radioligand binding (Table S2); details: [125I] Ghrelin (human), Human recombinant CHO-K1 cells
T14 construct: host or cells: CHO-K1 cells
T14 sequence (Q92847 whole entry): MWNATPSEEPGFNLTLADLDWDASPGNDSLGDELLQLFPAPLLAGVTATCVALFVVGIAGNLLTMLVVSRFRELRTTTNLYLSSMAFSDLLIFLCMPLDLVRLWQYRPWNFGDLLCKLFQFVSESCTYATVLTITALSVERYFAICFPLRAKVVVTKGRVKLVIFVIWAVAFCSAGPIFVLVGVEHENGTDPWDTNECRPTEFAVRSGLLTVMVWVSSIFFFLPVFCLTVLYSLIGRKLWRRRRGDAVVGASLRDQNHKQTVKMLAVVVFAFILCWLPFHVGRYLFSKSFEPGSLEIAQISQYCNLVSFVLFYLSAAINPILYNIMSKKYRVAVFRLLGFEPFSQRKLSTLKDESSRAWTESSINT

[22] = target: T15, Histamine H4 (Homo sapiens, UniProt Q9H3N8); test: radioligand binding (Table S2); details: [3H] Histamine, Human recombinant HEK-293 cells
T15 construct: host or cells: HEK-293 cells
T15 sequence (Q9H3N8 whole entry): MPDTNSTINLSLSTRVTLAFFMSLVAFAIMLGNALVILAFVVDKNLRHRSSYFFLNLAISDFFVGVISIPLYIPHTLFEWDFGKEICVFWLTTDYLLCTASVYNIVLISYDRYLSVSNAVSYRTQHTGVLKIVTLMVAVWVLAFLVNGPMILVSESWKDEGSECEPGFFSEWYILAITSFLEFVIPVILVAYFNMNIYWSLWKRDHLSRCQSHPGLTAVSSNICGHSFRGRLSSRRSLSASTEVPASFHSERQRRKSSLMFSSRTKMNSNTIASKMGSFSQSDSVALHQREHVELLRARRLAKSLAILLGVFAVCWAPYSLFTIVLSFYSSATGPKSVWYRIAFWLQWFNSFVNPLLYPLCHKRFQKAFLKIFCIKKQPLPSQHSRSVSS

With `Cc1cc(-c2ncnn2C)c2cccc(OCc3c(Cl)cc(F)cc3[C@H](C)NC(=O)COC(F)F)c2n1` [Compound 3, (S)-N-(1-(3-chloro-5-fluoro-2-((2-methyl-4-(1-methyl-1H-1,2,4-triazol-5-yl)quinolin-8-yloxy)methyl)phenyl)ethyl)-2-(difluoromethoxy)acetamide] the “effect on contraction by B1 receptor agonist Sar-[D-Phe^8]des-Arg^9-BK” value [1] was “failed to antagonize”, the inhibition at 10 µM [2] was 4% and the inhibition at 10 µM ([3]; CHO, read-out: % inhibition of reference agonist response @ 10 µM (antagonist effect), Neuromedin B (0.1 nM)) was 28.5%. The “% of reference agonist response @ 10 µM (agonist effect)” value ([3]; reference neuromedin B (10 nM)) was 4.4%, the inhibition at 10 µM [4] was 8.4% and the “% Inhibition @ 10 µM” value [5] was 6.4%. For the same compound, the inhibition at 10 µM [6] was -9.3%, the inhibition at 10 µM [7] was -33.6% and the “% Inhibition @ 10 µM” value [8] was 3.0%. It also gave an inhibition at 10 µM [9] of -7%, an IC50 ([10]; arithmetic mean, read-out: IC50 (nM) Mean) of 2.13 nM and a Kb ([10]; arithmetic mean, read-out: Kb (nM) Mean) of 0.24 nM. The IC50 ([10]; geometric mean, read-out: IC50 (nM) Geometric mean) was 2.13 nM, the Kb ([10]; geometric mean, read-out: Kb (nM) Geometric mean) was 0.24 nM and the inhibition at 10 µM [11] was 10.6%. For the same compound, the inhibition at 10 µM [12] was 12%, the “% Inhibition @ 10 µM” value [13] was 84% and the inhibition at 10 µM [13] was 84.1%. For the same compound, the inhibition at 10 µM [14] was -2.3%, the inhibition at 10 µM [15] was -15.1% and the inhibition at 10 µM [16] was 9.8%. The inhibition at 10 µM [17] was 7.2%, the inhibition at 10 µM [18] was 3% and the “% Inhibition @ 10 µM” value [19] was 12%. The inhibition at 10 µM [20] was -3.8%, the inhibition at 10 µM [21] was 6% and the inhibition at 10 µM [22] was -2.8%.
